Assay results: patent EP4782431A1 (Suzhou Merna Therapeutics Co. Ltd, priority 2023, dated 2025)

Legend:
[1] = system: rat models with a hand-foot skin reaction; assay: rat models with a hand-foot skin reaction; format: in vivo, SD rats; conditions: for Incidence rate Left paw: once daily 30 days; for Incidence rate Right paw: right paw with blank matrix ointment, 30 days
Protocol: After adaptive feeding for one week, SD rats (with a body weight of approximately 200 g) were randomly divided into groups with balanced body weight, with 12 rats in each group. Modeling drugs (including sorafenib, erlotinib, afatinib, and osimertinib) were respectively dissolved in a solution containing 5% of DMSO, 45% of PEG400, and 50% of H2O, and the modeling drugs were diluted to required concentrations and then administered once daily by gavage at doses shown in Table 3. After administration by gavage for 1 hour, 0.05 g of ointments containing different mass proportions of test compounds were evenly applied to left paws of the rats, a blank matrix ointment was applied to right paws of the rats to serve as a self-control, and no ointment was applied to the rats in a blank control group. After drug application, four limbs were continuously immobilized for 2 hours, then wiped with clean water to remove the residual drugs, removed from immobilization, and restored to free movement. The modeling drugs, the blank matrix ointment, and the ointments containing the test compounds were all administered once daily. After continuous administration for 30 days, the rats were euthanized, and paw plantar skin tissues were collected, fixed in 10% neutral formalin, […]. The ointments for the test compounds were prepared by mixing the compounds, white beeswax, white petrolatum, and light liquid paraffin in specific ratios (weight ratios of 3 ointments were respectively 1:18:58:23, 3:18:57:22, and 10:20:40:30). The blank matrix ointment was prepared by mixing white beeswax, white petrolatum, and light liquid paraffin in a specific ratio (weight ratio of 18:60:22).
Tissue staining: After dewaxing and rehydration, the paw plantar skin tissue sections of the above rats were stained in a hematoxylin solution for several minutes, cleaned, and placed in 1% acid alcohol for soaking until the sections faded to light blue-red. After cleaning with running water for 5 minutes, the sections were stained with eosin for 2-3 minutes, cleaned to remove excess dyes, dehydrated, then permeabilized by adding xylene for several minutes, and sealed and fixed with a neutral resin. The stratum corneum was observed under an optical microscope, and the thickness of the epidermal stratum corneum was measured using Dmetrix software.
Immunohistochemical staining: After dewaxing and hydration, the paw plantar skin tissue sections of the above rats were incubated with 3% H2O2 at room temperature for 30 minutes and blocked with 10% goat serum for 30 minutes after antigen retrieval. A KRT1 antibody (Abcam, ab93652) and a Loricrin antibody (Abcam, ab183646) were added dropwise, the sections were incubated overnight at 4°C, and an HRP secondary antibody (ZSGB-BIO, PV-6001) and a DAB kit (ZSG-BIO, ZLI9017) were added for color development. The sections were re-stained with hematoxylin, cleaned, and sealed and fixed with a neutral resin, and the expression amounts of KRT1 and Loricrin were observed under an optical microscope.
An incidence rate calculation method involves a proportion of animals in each group meeting the above criteria for determining successful modeling, that is, incidence rate = (number of successfully modeled rats/total number of rats in the group)*100%. […]

[2] = system: kinase inhibitor-induced mouse model with hand-foot skin reaction; assay: kinase inhibitor-induced mouse model with hand-foot skin reaction; format: in vivo, ICR mice; conditions: for expression level of cytokine IL-1β in the skin tissues of the hind limb toes of the mice / infiltration of inflammatory cells / thickening of the epidermal layer and the stratum corneum in the skin tissues: 3% ointment topical or nicotinamide 100 mg/kg oral; for infiltration of inflammatory cells / thickening of the epidermal layer and the stratum corneum in the skin tissues / swelling of the toes caused by the modeling drugs: sorafenib and osimertinib models; for swelling of the toes caused by the modeling drugs: compound of formula (I) 3% ointment topical or nicotinamide 100 mg/kg oral, once daily 16 days
Description: After adaptive feeding for 7 days, SPF-grade ICR mice (male, 5-6 weeks old, with a body weight of approximately 35 g) were randomly divided into groups, including a blank control group (6 mice), a sorafenib modeling group (6 mice), an osimertinib modeling group (6 mice), a sorafenib + compound of formula (I) group (6 mice), an osimertinib + compound of formula (I) group (6 mice), a sorafenib + nicotinamide group (6 mice), and an osimertinib + nicotinamide group (6 mice). The groups were respectively administered corresponding modeling drugs by oral gavage (sorafenib at 100 mg/kg and osimertinib at 10 mg/kg) once daily; and the blank control group was administered an equivalent volume of normal saline. After administration with the chemotherapeutic drugs for 2 weeks, the ointments containing the compound of formula (I) (at a compound content of 3%) used in Example 10 were respectively applied topically in the groups, or nicotinamide was orally administered (100 mg/kg) once daily continuously for 16 days.
Measurement of the degree of swelling of toes: The degree of swelling of hind limb toes of the mice was measured using a toe swelling tester (KW-7C, Nanjing Calvin Biotechnology Co., Ltd.) before administration with the modeling drugs, after administration with the modeling drugs for 2 weeks, and before sacrifice, respectively. Before measurement, ankle joints of hind feet of the mice were marked at same positions before administration, after administration for 2 weeks, and before sacrifice. During measurement, water was properly located at the same level as the marked positions, and numerical values were recorded after becoming stable.
Pathological staining of skin tissues: Skin tissue samples were selected from hind limb toes of the mice and placed in 4% paraformaldehyde for fixation at room temperature for 4 hours. Then, the tissues were taken out and rinsed with running water for several hours. The samples were subjected to dehydration treatment with 70%, 80%, and 90% ethanol solutions, followed by treatment with a mixed solution of equal amounts of absolute alcohol and xylene for 15 minutes, and then permeabilized twice with a xylene solution for 15 minutes each time until the samples became transparent. The samples were placed in a mixture of half xylene and half paraffin for soaking for 15 minutes, and then, paraffin I and paraffin II were added for wax penetration for one hour, respectively. After embedding with paraffin, the samples were sectioned, baked, dewaxed, and hydrated. Then, the hydrated sections were placed in a hematoxylin solution (ZSGB-BIO, article No. 23041001) for staining for 3 minutes, and a differentiation solution of hydrochloric acid in ethanol was added for differentiation for 15 seconds. After rinsing with water, a Scott bluing solution (Servicebio, article No. 20230801) was added for bluing for 15 seconds. After rinsing with running water, the sections were stained with an eosin solution (Solarbio, article No. 33535) for 3 minutes, rinsed with running water, dehydrated, permeabilized, sealed, and inspected under a microscope.
Immunohistochemical staining: After baking, dewaxing, and hydration, paraffin sections of skin tissues of hind limb toes of the mice were subjected to antigen retrieval using a 0.2 M citric acid buffer solution (containing 1.534 g of citric acid, 3.1 g of sodium citrate, and 100 mL of distilled water, pH 4.7). Endogenous […] was removed using 3% hydrogen peroxide (Shandong Annjet High-Tech Disinfection Technology Co., Ltd., article No. 20290902), and the sections were incubated at room temperature for 10 minutes and then fully rinsed with a PBS buffer solution (containing 8 g of NaCl, 0.2 g of KCl, 1.44 g of Na2HPO4, and 1 M HCl, pH 7.4). The sections were permeabilized with 0.5% Triton-X-100 (AmyJet Scientific, article No. A-CSH436-100 mL), respectively permeabilized with mouse anti-IL-1β and rabbit IL-8 for 10 minutes, and not permeabilized with rabbit anti-IL-6. […]

[3] = Afatinib 50 mg/kg model, 1% ointment on left paw
[4] = Afatinib 50 mg/kg model, 3% ointment on left paw
[5] = Afatinib 50 mg/kg model, 10% ointment on left paw
[6] = Erlotinib 70 mg/kg model, 1% ointment on left paw
[7] = Erlotinib 70 mg/kg model, 3% ointment on left paw
[8] = Erlotinib 70 mg/kg model, 10% ointment on left paw
[9] = Osimertinib 60 mg/kg model, 1% ointment on left paw
[10] = Osimertinib 60 mg/kg model, 3% ointment on left paw
[11] = Osimertinib 60 mg/kg model, 10% ointment on left paw
[12] = Sorafenib 100 mg/kg model, 1% ointment on left paw
[13] = Sorafenib 100 mg/kg model, 3% ointment on left paw
[14] = Sorafenib 100 mg/kg model, 10% ointment on left paw

NC(=O)[C@H]1CCCc2c1[nH]c1ccc(Cl)cc21 [Compound of formula (I), (S)-6-chloro-2,3,4,9-tetrahydro-1H-carbazole-carboxamide] was tested, and the “Incidence rate Left paw” value [1, 3] was 3/12 (25%), the “Incidence rate Left paw” value [1, 4] was 2/12 (17%) and the “Incidence rate Left paw” value [1, 5] was 0/12 (0%). For the same compound, the “Incidence rate Right paw” value [1, 3] was 9/12 (75%), the “Incidence rate Right paw” value [1, 4] was 4/12 (33%) and the “Incidence rate Right paw” value [1, 5] was 3/12 (25%). For the same compound, the “Incidence rate Left paw” value [1, 6] was 3/12 (25%), the “Incidence rate Left paw” value [1, 7] was 2/12 (17%) and the “Incidence rate Left paw” value [1, 8] was 1/12 (8%). The “Incidence rate Right paw” value [1, 6] was 10/12 (83%), the “Incidence rate Right paw” value [1, 7] was 5/12 (42%) and the “Incidence rate Right paw” value [1, 8] was 4/12 (33%). The “Incidence rate Left paw” value [1, 9] was 2/12 (17%), the “Incidence rate Left paw” value [1, 10] was 2/12 (17%) and the “Incidence rate Left paw” value [1, 11] was 0/12 (0%). For the same compound, the “Incidence rate Right paw” value [1, 9] was 8/12 (67%), the “Incidence rate Right paw” value [1, 10] was 4/12 (33%) and the “Incidence rate Right paw” value [1, 11] was 3/12 (25%). For the same compound, the “Incidence rate Left paw” value [1, 12] was 2/12 (17%), the “Incidence rate Left paw” value [1, 13] was 2/12 (17%) and the “Incidence rate Left paw” value [1, 14] was 0/12 (0%). The “Incidence rate Right paw” value [1, 12] was 9/12 (75%), the “Incidence rate Right paw” value [1, 13] was 4/12 (33%) and the “Incidence rate Right paw” value [1, 14] was 4/12 (33%). The “stratum corneum thickness of the paw plantar skin of the modeled rats” value ([1]; ointment on paw of modeled rats) was “effectively decrease”, the “incidence rate of hand-foot skin reaction at a drug application site” value ([1]; ointment, mass content of 1%) was “significantly decrease” and the “incidence rate of hand-foot skin reaction in all paws of the rats” value ([1]; ointment, mass content of 3% and 10%) was “significantly decrease”. For the same compound, the “formation of blisters in the epidermis and subepidermis caused by the modeling drugs” value ([1]; pathological scoring (FIG. 10)) was “effectively alleviate”, the “inflammatory cell infiltration in the dermis” value ([1]; pathological scoring (FIG. 10)) was “inhibit” and the skin congestion phenomenon ([1]; pathological scoring (FIG. 10)) was “significantly alleviate”. For the same compound, the “formation of blisters in the epidermis and subepidermis caused by the modeling drugs” value ([1]; tissue staining (FIG. 9)) was “effectively alleviate”, the “inflammatory cell infiltration in the dermis” value ([1]; tissue staining (FIG. 9)) was “inhibit” and the skin congestion phenomenon ([1]; tissue staining (FIG. 9)) was “significantly alleviate”. The “expression level of cytokine IL-1β in the skin tissues of the hind limb toes of the mice” value (from here on “expression level of cytokine IL-1β”) ([2]; osimertinib model) was “significantly decrease”, the “infiltration of inflammatory cells” value [2] was “no infiltration of inflammatory cells observed” and the “thickening of the epidermal layer and the stratum corneum in the skin tissues” value [2] was “effectively alleviate”. For the same compound, the “swelling of the toes caused by the modeling drugs” value [2] was “effectively alleviate” and the “expression level of cytokine IL-1β” value ([2]; sorafenib model) was “significantly decrease”.

With NC(=O)c1cccnc1 [Nicotinamide, nicotinamide] the “expression level of cytokine IL-1β” value ([2]; osimertinib model) was “didn't have a significant impact”, the “infiltration of inflammatory cells” value [2] was “infiltration of inflammatory cells still observed” and the “thickening of the epidermal layer and the stratum corneum in the skin tissues” value [2] was “didn't significantly alleviate”. The “swelling of the toes caused by the modeling drugs” value [2] was “not observed that oral administration of the nicotinamide at 100 mg/kg significantly alleviated the swelling” and the “expression level of cytokine IL-1β” value ([2]; sorafenib model) was “didn't have a significant impact”.

For C=CC(=O)Nc1cc(Nc2nccc(-c3cn(C)c4ccccc34)n2)c(OC)cc1N(C)CCN(C)C [Osimertinib, osimertinib], the “KRT1 and Loricrin in tissues” value ([1]; rat, in vivo) was “significantly increased”, the “stratum corneum thickness of the paw plantar skin” value ([1]; rat, in vivo) was “significantly higher than that of normal rats” and the “cytokine IL-1β in the skin tissues of the hind limb toes of the mice” value ([2]; modeling drug oral 14 days, vs normal control group, p<0.05) was “significantly increased”. For the same compound, the “swelling of the hind limb toes of the mice” value ([2]; modeling drug oral, 14 days: sorafenib 100 mg/kg, osimertinib 10 mg/kg) was “significant swelling of the hind limb toes of the mice was caused”, the “epidermal layer and the stratum corneum in the skin tissues of the hind limb toes” value ([2]; modeling drug oral, 14 days: sorafenib, osimertinib, vs normal control group) was “significantly thickened” and the “skin of the hind limb toes of the mice (appearance)” value ([2]; modeling for 14 days: sorafenib 100 mg/kg, osimertinib 10 mg/kg oral gavage once daily, vs normal control group) was “obvious erythema and rhagades”.
